Molecular target: BACE1 enzyme (Homo sapiens (Human), UniProt P56817)
Assay: BACE1 efficacy assay (FRET-based, commercial BACE1 kit)
Format: biochemical
Details: test compound 10 μM, 3 nM enzyme, 250 nM substrate
Protocol: The efficacy assay was performed as a FRET-based assay using a commercially available BACE1 kit (Life Technologies, P2985). 2 μl test compound at 10 μM (final concentration) and 15 μl BACE1 enzyme from the kit (final concentration 3 nM) were preincubated for 15 minutes at room temperature before addition of 15 μl of substrate from the kit (250 nM final concentration) and incubated for additional 90 minutes at room temperature. The assay plate was subsequently read in a Pherastar (Ex540/Em590). […] The efficacy of the test compounds was evaluated at 10 μM (final concentration) and defined as the percent inhibition of the enzyme activity using the equation % inhibition=100%−normalized enzyme activity in percent.

BACE1 enzyme, sequence (P56817 46-501): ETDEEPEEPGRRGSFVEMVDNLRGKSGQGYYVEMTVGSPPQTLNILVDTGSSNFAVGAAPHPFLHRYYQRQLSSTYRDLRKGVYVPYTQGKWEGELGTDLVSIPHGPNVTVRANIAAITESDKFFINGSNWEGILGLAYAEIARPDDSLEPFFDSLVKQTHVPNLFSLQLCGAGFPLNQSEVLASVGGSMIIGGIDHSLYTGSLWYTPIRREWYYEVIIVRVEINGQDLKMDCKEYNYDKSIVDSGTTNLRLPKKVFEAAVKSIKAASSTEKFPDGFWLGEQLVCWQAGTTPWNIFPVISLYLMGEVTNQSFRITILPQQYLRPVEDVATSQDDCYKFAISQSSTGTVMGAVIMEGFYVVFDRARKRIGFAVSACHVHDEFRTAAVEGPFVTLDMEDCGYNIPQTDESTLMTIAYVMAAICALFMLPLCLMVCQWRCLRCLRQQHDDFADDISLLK

inhibition at 10 µM [%]	SMILES
94	[2H]C([2H])([2H])Oc1ccc(C(=O)Nc2ccc(F)c([C@@]3(C)N=C(N)[C@](C)(F)CC3(F)F)c2)nc1 [Compound 43, N-(3-((2R,5R)-6-amino-3,3,5-trifluoro-2,5-dimethyl-2,3,4,5-tetrahydropyridin-2-yl)-4-fluorophenyl)-5-(methoxy-d3)picolinamide]
102	Cc1nc(C(=O)Nc2ccc(F)c([C@@]3(C)N=C(N)[C@](C)(F)CC3(F)F)c2)co1 [Compound 34, N-(3-((2R,5R)-6-amino-3,3,5-trifluoro-2,5-dimethyl-2,3,4,5-tetrahydropyridin-2-yl)-4-fluorophenyl)-2-methyloxazole-4-carboxamide]
74	Cn1ccc(C(=O)Nc2ccc(F)c([C@@]3(C)N=C(N)[C@](C)(F)CC3(F)F)c2)n1 [Compound 39, N-(3-((2R,5R)-6-amino-3,3,5-trifluoro-2,5-dimethyl-2,3,4,5-tetrahydropyridin-2-yl)-4-fluorophenyl)-1-methyl-1H-pyrazole-3-carboxamide]
69	Cc1cc(C(=O)Nc2ccc(F)c([C@@]3(C)N=C(N)[C@](C)(F)CC3(F)F)c2)on1 [Compound 40, N-(3-((2R,5R)-6-amino-3,3,5-trifluoro-2,5-dimethyl-2,3,4,5-tetrahydropyridin-2-yl)-4-fluorophenyl)-3-methylisoxazole-5-carboxamide]
98	Cc1cn(C)c(C(=O)Nc2ccc(F)c([C@@]3(C)N=C(N)[C@](C)(F)CC3(F)F)c2)n1 [Compound 38, N-(3-((2R,5R)-6-amino-3,3,5-trifluoro-2,5-dimethyl-2,3,4,5-tetrahydropyridin-2-yl)-4-fluorophenyl)-1,4-dimethyl-1H-imidazole-2-carboxamide]
104	Cn1cc(Br)nc1C(=O)Nc1ccc(F)c([C@@]2(C)N=C(N)[C@](C)(F)CC2(F)F)c1 [Compound 37, N-(3-((2R,5R)-6-amino-3,3,5-trifluoro-2,5-dimethyl-2,3,4,5-tetrahydropyridin-2-yl)-4-fluorophenyl)-4-bromo-1-methyl-1H-imidazole-2-carboxamide]
92	C[C@@]1(F)CC(F)(F)[C@@](C)(c2cc(NC(=O)c3ccc(Cl)cc3)ccc2F)N=C1N [Compound 44, N-(3-((2R,5R)-6-amino-3,3,5-trifluoro-2,5-dimethyl-2,3,4,5-tetrahydropyridin-2-yl)-4-fluorophenyl)-4-chlorobenzamide]
102	Cc1nc(C(=O)Nc2ccc(F)c([C@@]3(C)N=C(N)[C@@](C)(F)CC3(F)F)c2)c(C)o1 [Compound 47, N-(3-((2R,5S)-6-amino-3,3,5-trifluoro-2,5-dimethyl-2,3,4,5-tetrahydropyridin-2-yl)-4 fluorophenyl)-2,5-dimethyloxazole-4-carboxamide]
100	C[C@@]1(F)CC(F)(F)[C@@](C)(c2cc(NC(=O)c3nccs3)ccc2F)N=C1N [Compound 36, N-(3-((2R,5R)-6-amino-3,3,5-trifluoro-2,5-dimethyl-2,3,4,5-tetrahydropyridin-2-yl)-4-fluorophenyl)thiazole-2-carboxamide]

The next lines start with the molecule.

SMILES	inhibition at 10 µM [%]
C[C@]1(F)CC(F)(F)[C@@](C)(c2cc(NC(=O)c3nc(CF)co3)ccc2F)N=C1N [Compound 14, N-(3-((2R,5S)-6-amino-3,3,5-trifluoro-2,5-dimethyl-2,3,4,5-tetrahydropyridin-2-yl)-4-fluorophenyl)-4-(fluoromethyl)oxazole-2-carboxamide]	102
C[C@]1(F)CC(F)(F)[C@@](C)(c2cc(NC(=O)c3ccn(C(F)F)n3)ccc2F)N=C1N [Compound 6, N-(3-((2R,5S)-6-amino-3,3,5-trifluoro-2,5-dimethyl-2,3,4,5-tetrahydropyridin-2-yl)-4-fluorophenyl)-1-(difluoromethyl)-1H-pyrazole-3-carboxamide]	100
Cn1cc(Br)nc1C(=O)Nc1ccc(F)c([C@@]2(C)N=C(N)[C@@](C)(F)CC2(F)F)c1 [Compound 9, N-(3-((2R,5S)-6-amino-3,3,5-trifluoro-2,5-dimethyl-2,3,4,5-tetrahydropyridin-2-yl)-4-fluorophenyl)-4-bromo-1-methyl-1H-imidazole-2-carboxamide]	103
C[C@]1(F)CC(F)(F)[C@@](C)(c2cc(NC(=O)c3ccc(C(F)(F)F)cn3)ccc2F)N=C1N [Compound 11, N-(3-((2R,5S)-6-amino-3,3,5-trifluoro-2,5-dimethyl-2,3,4,5-tetrahydropyridin-2-yl)-4-fluorophenyl)-5-(trifluoromethyl)picolinamide]	99
C[C@]1(F)CC(F)(F)[C@@](C)(c2cc(NC(=O)c3cnc(C(F)F)cn3)ccc2F)N=C1N [Compound 16, N-(3-((2R,5S)-6-amino-3,3,5-trifluoro-2,5-dimethyl-2,3,4,5-tetrahydropyridin-2-yl)-4-fluorophenyl)-5-(difluoromethyl)pyrazine-2-carboxamide]	105
Cc1nc(C(=O)Nc2ccc(F)c([C@@]3(C)N=C(N)[C@@](C)(F)CC3(F)F)c2)co1 [Compound 7, N-(3-((2R,5S)-6-amino-3,3,5-trifluoro-2,5-dimethyl-2,3,4,5-tetrahydropyridin-2-yl)-4-fluorophenyl)-2-methyloxazole-4-carboxamide]	100
C[C@@]1(F)CC(F)(F)[C@@](C)(c2cc(NC(=O)c3ccc(F)cn3)ccc2F)N=C1N [Compound 2, N-(3-((2R,5R)-6-amino-3,3,5-trifluoro-2,5-dimethyl-2,3,4,5-tetrahydropyridin-2-yl)-4-fluorophenyl)-5-fluoropicolinamide]	100
C[C@@]1(F)CC(F)(F)[C@@](C)(c2cc(NC(=O)c3ccc(Cl)cn3)ccc2F)N=C1N [Compound 33, N-(3-((2R,5R)-6-amino-3,3,5-trifluoro-2,5-dimethyl-2,3,4,5-tetrahydropyridin-2-yl)-4-fluorophenyl)-5-chloropicolinamide]	103
Cc1noc(C(=O)Nc2ccc(F)c([C@@]3(C)N=C(N)[C@@](C)(F)CC3(F)F)c2)n1 [Compound 21, N-(3-((2R,5S)-6-amino-3,3,5-trifluoro-2,5-dimethyl-2,3,4,5-tetrahydropyridin-2-yl)-4-fluorophenyl)-3-methyl-1,2,4-oxadiazole-5-carboxamide]	102
C[C@]1(F)CC(F)(F)[C@@](C)(c2cc(NC(=O)c3coc(C(F)F)n3)ccc2F)N=C1N [Compound 13, N-(3-((2R,5S)-6-amino-3,3,5-trifluoro-2,5-dimethyl-2,3,4,5-tetrahydropyridin-2-yl)-4-fluorophenyl)-2-(difluoromethyl)oxazole-4-carboxamide]	99
C[C@@]1(F)CC(F)(F)[C@@](C)(c2cc(NC(=O)c3coc(C(F)F)n3)ccc2F)N=C1N [Compound 29, N-(3-((2R,5R)-6-amino-3,3,5-trifluoro-2,5-dimethyl-2,3,4,5-tetrahydropyridin-2-yl)-4-fluorophenyl)-2-(difluoromethyl)oxazole-4-carboxamide]	101
Cc1nnc(C(=O)Nc2ccc(F)c([C@@]3(C)N=C(N)[C@@](C)(F)CC3(F)F)c2)o1 [Compound 20, N-(3-((2R,5S)-6-amino-3,3,5-trifluoro-2,5-dimethyl-2,3,4,5-tetrahydropyridin-2-yl)-4-fluorophenyl)-5-methyl-1,3,4-oxadiazole-2-carboxamide]	88
C[C@]1(F)CC(F)(F)[C@@](C)(c2cc(NC(=O)c3nccs3)ccc2F)N=C1N [Compound 8, N-(3-((2R,5S)-6-amino-3,3,5-trifluoro-2,5-dimethyl-2,3,4,5-tetrahydropyridin-2-yl)-4-fluorophenyl)thiazole-2-carboxamide]	104
COc1cnc(C(=O)Nc2ccc(F)c([C@@]3(C)N=C(N)[C@@](C)(F)CC3(F)F)c2)nc1 [Compound 12, N-(3-((2R,5S)-6-amino-3,3,5-trifluoro-2,5-dimethyl-2,3,4,5-tetrahydropyridin-2-yl)-4-fluorophenyl)-5-methoxpyrimidine-2-carboxamide]	104
C[C@]1(F)CC(F)(F)[C@@](C)(c2cc(NC(=O)c3nc(CF)cs3)ccc2F)N=C1N [Compound 15, N-(3-((2R,5S)-6-amino-3,3,5-trifluoro-2,5-dimethyl-2,3,4,5-tetrahydropyridin-2-yl)-4-fluorophenyl)-4-(fluoromethyl)thiazole-2-carboxamide]	101
C[C@]1(F)CC(F)(F)[C@@](C)(c2cc(NC(=O)c3ccc(Cl)cn3)ccc2F)N=C1N [Compound 3, N-(3-((2R,5S)-6-amino-3,3,5-trifluoro-2,5-dimethyl-2,3,4,5-tetrahydropyridin-2-yl)-4-fluorophenyl)-5-chloropicolinamide]	102
C[C@]1(F)CC(F)(F)[C@@](C)(c2cc(NC(=O)c3ccc(C#N)cn3)ccc2F)N=C1N [Compound 4, N-(3-((2R,5S)-6-amino-3,3,5-trifluoro-2,5-dimethyl-2,3,4,5-tetrahydropyridin-2-yl)-4-fluorophenyl)-5-cyanopicolinamide]	99
COc1cnc(C(=O)Nc2ccc(F)c([C@@]3(C)N=C(N)[C@](C)(F)CC3(F)F)c2)nc1 [Compound 26, N-(3-((2R,5R)-6-amino-3,3,5-trifluoro-2,5-dimethyl-2,3,4,5-tetrahydropyridin-2-yl)-4-fluorophenyl)-5-methoxypyrimidine-2-carboxamide]	102
C[C@@]1(F)CC(F)(F)[C@@](C)(c2cc(NC(=O)c3ccc(C#N)cn3)ccc2F)N=C1N [Compound 32, N-(3-((2R,5R)-6-amino-3,3,5-trifluoro-2,5-dimethyl-2,3,4,5-tetrahydropyridin-2-yl)-4-fluorophenyl)-5-cyanopicolinamide]	101

— patent US10004738B2, “Combination treatment comprising administration of 2-amino-3,5,5-trifluoro-3,4,5,6-tetrahydropyridines” (H. Lundbeck A/S, priority 2015, dated 2018)
